Tests used:
Type in all cases: functional
[1] = tested on: SF-539; assay: Growth inhibition of human SF539 cells assessed as cell growth at 3X10'-5 M after 48 hrs by sulforhodamine B assay; conditions: SF-539, 48 h, read-out: Activity
[2] = tested on: TK-10; assay: Growth inhibition of human TK10 cells assessed as cell growth at 3X10'-9 M after 48 hrs by sulforhodamine B assay; conditions: TK-10, 48 h, read-out: Activity
[3] = Growth inhibition of human HCC2998 cells assessed as cell growth at 3X10'-9 M after 48 hrs by sulforhodamine B assay; conditions: HCC 2998, 48 h, read-out: Activity
[4] = tested on: UACC-62; assay: Growth inhibition of human UACC62 cells assessed as cell growth at 3X10'-9 M after 48 hrs by sulforhodamine B assay; conditions: UACC-62, 48 h, read-out: Activity
[5] = tested on: RXF 393; assay: Growth inhibition of human RXF393 cells assessed as cell growth at 3X10'-6 M after 48 hrs by sulforhodamine B assay; conditions: RXF 393, 48 h, read-out: Activity
[6] = tested on: MOLT-4; assay: Growth inhibition of human MOLT4 cells assessed as cell growth at 3X10'-7 M after 48 hrs by sulforhodamine B assay; conditions: MOLT-4, 48 h, read-out: Activity
[7] = tested on: IGROV-1; assay: Growth inhibition of human IGROV1 cells assessed as cell growth at 3X10'-9 M after 48 hrs by sulforhodamine B assay; conditions: IGROV-1, 48 h, read-out: Activity
[8] = tested on: OVCAR-3; assay: Growth inhibition of human OVCAR3 cells assessed as cell growth at 3X10'-6 M after 48 hrs by sulforhodamine B assay; conditions: OVCAR-3, 48 h, read-out: Activity
[9] = tested on: SK-MEL-28; assay: Growth inhibition of human SK-MEL-28 cells assessed as cell growth at 3X10'-8 M after 48 hrs by sulforhodamine B assay; conditions: SK-MEL-28, 48 h, read-out: Activity
[10] = tested on: COLO 205; assay: Growth inhibition of human COLO205 cells assessed as cell growth at 3X10'-9 M after 48 hrs by sulforhodamine B assay; conditions: COLO 205, 48 h, read-out: Activity
[11] = tested on: TK-10; assay: Growth inhibition of human TK10 cells assessed as cell growth at 3X10'-8 M after 48 hrs by sulforhodamine B assay; conditions: TK-10, 48 h, read-out: Activity
[12] = tested on: Malme-3M; assay: Growth inhibition of human MALME-3M cells assessed as cell growth at 3X10'-9 M after 48 hrs by sulforhodamine B assay; conditions: read-out: Activity
[13] = tested on: RXF 393; assay: Growth inhibition of human RXF393 cells assessed as cell growth at 3X10'-7 M after 48 hrs by sulforhodamine B assay; conditions: RXF 393, 48 h, read-out: Activity
[14] = tested on: CCRF-CEM; assay: Growth inhibition of human CCRF-CEM cells assessed as cell growth at 3X10'-8 M after 48 hrs by sulforhodamine B assay; conditions: read-out: Activity
[15] = tested on: U-251; assay: Growth inhibition of human U251 cells assessed as cell growth at 3X10'-9 M after 48 hrs by sulforhodamine B assay; conditions: U-251, 48 h, read-out: Activity
[16] = tested on: SF-295; assay: Growth inhibition of human SF295 cells assessed as cell growth at 3X10'-9 M after 48 hrs by sulforhodamine B assay; conditions: SF-295, 48 h, read-out: Activity
[17] = tested on: OVCAR-4; assay: Growth inhibition of human OVCAR4 cells assessed as cell growth at 3X10'-8 M after 48 hrs by sulforhodamine B assay; conditions: OVCAR-4, 48 h, read-out: Activity
[18] = tested on: UACC-62; assay: Growth inhibition of human UACC62 cells assessed as cell growth at 3X10'-7 M after 48 hrs by sulforhodamine B assay; conditions: UACC-62, 48 h, read-out: Activity
[19] = tested on: M14; assay: Growth inhibition of human M14 cells assessed as cell growth at 3X10'-8 M after 48 hrs by sulforhodamine B assay; conditions: M14, 48 h, read-out: Activity
[20] = tested on: HOP-92; assay: Growth inhibition of human HOP92 cells assessed as cell growth at 3X10'-6 M after 48 hrs by sulforhodamine B assay; conditions: HOP-92, 48 h, read-out: Activity
[21] = tested on: HCT-116; assay: Growth inhibition of human HCT116 cells assessed as cell growth at 3X10'-9 M after 48 hrs by sulforhodamine B assay; conditions: HCT-116, 48 h, read-out: Activity
[22] = tested on: A549; assay: Growth inhibition of human A549/ATCC cells assessed as cell growth at 3X10'-6 M after 48 hrs by sulforhodamine B assay; conditions: A549, 48 h, read-out: Activity
[23] = tested on: HOP-62; assay: Growth inhibition of human HOP62 cells assessed as cell growth at 3X10'-9 M after 48 hrs by sulforhodamine B assay; conditions: HOP-62, 48 h, read-out: Activity
[24] = tested on: HCT-15; assay: Growth inhibition of human HCT15 cells assessed as cell growth at 3X10'-5 M after 48 hrs by sulforhodamine B assay; conditions: HCT-15, 48 h, read-out: Activity
[25] = tested on: OVCAR-8; assay: Growth inhibition of human OVCAR8 cells assessed as cell growth at 3X10'-8 M after 48 hrs by sulforhodamine B assay; conditions: OVCAR-8, 48 h, read-out: Activity
[26] = tested on: SF-295; assay: Growth inhibition of human SF295 cells assessed as cell growth at 3X10'-7 M after 48 hrs by sulforhodamine B assay; conditions: SF-295, 48 h, read-out: Activity
[27] = tested on: SK-MEL-5; assay: Growth inhibition of human SK-MEL-5 cells assessed as cell growth at 3X10'-6 M after 48 hrs by sulforhodamine B assay; conditions: SK-MEL-5, 48 h, read-out: Activity
[28] = tested on: SNB-75; assay: Growth inhibition of human SNB75 cells assessed as cell growth at 3X10'-5 M after 48 hrs by sulforhodamine B assay; conditions: SNB-75, 48 h, read-out: Activity
[29] = tested on: MDA-MB-468; assay: Growth inhibition of human MDA-MB-468 cells assessed as cell growth at 3X10'-5 M after 48 hrs by sulforhodamine B assay; conditions: MDA-MB-468, 48 h, read-out: Activity
[30] = tested on: 786-0; assay: Growth inhibition of human 786-0 cells assessed as cell growth at 3X10'-6 M after 48 hrs by sulforhodamine B assay; conditions: 786-0, 48 h, read-out: Activity
[31] = tested on: HCT-15; assay: Growth inhibition of human HCT15 cells assessed as cell growth at 3X10'-6 M after 48 hrs by sulforhodamine B assay; conditions: HCT-15, 48 h, read-out: Activity
[32] = tested on: UACC-257; assay: Growth inhibition of human UACC257 cells assessed as cell growth at 3X10'-8 M after 48 hrs by sulforhodamine B assay; conditions: UACC-257, 48 h, read-out: Activity
[33] = tested on: M14; assay: Growth inhibition of human M14 cells assessed as cell growth at 3X10'-7 M after 48 hrs by sulforhodamine B assay; conditions: M14, 48 h, read-out: Activity
[34] = tested on: NCI-H460; assay: Growth inhibition of human NCI-H460 cells assessed as cell growth at 3X10'-5 M after 48 hrs by sulforhodamine B assay; conditions: NCI-H460, 48 h, read-out: Activity
[35] = tested on: OVCAR-3; assay: Growth inhibition of human OVCAR3 cells assessed as cell growth at 3X10'-7 M after 48 hrs by sulforhodamine B assay; conditions: OVCAR-3, 48 h, read-out: Activity
[36] = tested on: BT-549; assay: Growth inhibition of human BT549 cells assessed as cell growth at 3X10'-5 M after 48 hrs by sulforhodamine B assay; conditions: BT-549, 48 h, read-out: Activity

Row | SMILES | growth at 30 µM [1] | growth at 0.003 µM [2] | growth at 0.003 µM [3] | growth at 0.003 µM [4] | growth at 3 µM [5] | growth at 0.3 µM [6] | growth at 0.003 µM [7] | growth at 3 µM [8] | growth at 0.03 µM [9] | growth at 0.003 µM [10] | growth at 0.03 µM [11] | growth at 0.003 µM [12] | growth at 0.3 µM [13] | growth at 0.03 µM [14] | growth at 0.003 µM [15] | growth at 0.03 µM [17] | growth at 0.3 µM [18] | growth at 0.03 µM [19] | growth at 3 µM [20] | growth at 0.003 µM [21] | other results
1 | COc1cc(-c2nn(-c3cccc(NC(=O)Nc4ccc(Cl)c(C(F)(F)F)c4)c3)cc2-c2ccncc2)ccc1Cl | -80% | 101% | 102% | 95% | 20% | 90% | 110% | -14% | 95% | 106% | 102% | 112% | 88% | 95% | 97% | 96% | 89% | 109% | -36% | 102% | growth at 0.003 µM [16]: 92%; growth at 3 µM [22]: 11%; growth at 0.003 µM [23]: 95%; growth at 30 µM [24]: -35%; growth at 0.03 µM [25]: 101%; growth at 0.3 µM [26]: 93%; growth at 3 µM [27]: -5%; growth at 30 µM [28]: -24%; growth at 30 µM [29]: -38%; growth at 3 µM [30]: 28%; growth at 3 µM [31]: 18%; growth at 0.03 µM [32]: 90%; growth at 0.3 µM [33]: 100%; growth at 30 µM [34]: -28%; growth at 0.3 µM [35]: 100%; growth at 30 µM [36]: -41%
2 | O=C(Nc1cccc(-n2cc(-c3ccncc3)c(-c3ccc(Cl)c(O)c3)n2)c1)Nc1ccc(Cl)c(Cl)c1 | -34% | 96% | 95% | 99% | 16% | 101% | 103% | -1% | 102% | 100% | 103% | 92% | 83% | 98% | 98% | 102% | 91% | 94% | -26% | 94% | growth at 3 µM [22]: 14%; growth at 0.003 µM [23]: 96%; growth at 30 µM [24]: -1%; growth at 0.03 µM [25]: 98%; growth at 3 µM [27]: -73%; growth at 30 µM [28]: -15%; growth at 30 µM [29]: -18%; growth at 3 µM [30]: 74%; growth at 3 µM [31]: 14%; growth at 0.03 µM [32]: 93%; growth at 0.3 µM [33]: 96%; growth at 30 µM [34]: -58%; growth at 0.3 µM [35]: 103%; growth at 30 µM [36]: -12%
3 | O=C(Nc1cccc(-n2cc(-c3ccncc3)c(-c3ccc(Cl)c(O)c3)n2)c1)Nc1cccc(C(F)(F)F)c1 | -43% | 94% | 97% | 98% | 49% | 97% | 98% | 10% | 100% | 101% | 98% | 96% | 88% | 96% | 100% | 107% | 92% | 98% | -13% | 96% | growth at 0.003 µM [16]: 94%; growth at 3 µM [22]: 24%; growth at 0.003 µM [23]: 97%; growth at 30 µM [24]: 6%; growth at 0.03 µM [25]: 106%; growth at 0.3 µM [26]: 88%; growth at 3 µM [27]: 17%; growth at 30 µM [28]: 1%; growth at 30 µM [29]: -27%; growth at 3 µM [30]: 58%; growth at 3 µM [31]: 27%; growth at 0.03 µM [32]: 100%; growth at 0.3 µM [33]: 100%; growth at 30 µM [34]: -1%; growth at 0.3 µM [35]: 92%; growth at 30 µM [36]: -18%

From ChEMBL document CHEMBL2440076, “New triarylpyrazoles as broad-spectrum anticancer agents: design, synthesis, and biological evaluation” (Eur J Med Chem, 2013)
